# System: M. smegmatis 607 ™ (RB mutant)
# Format: cell-based, Mycobacterium smegmatis
row,Compound,susceptibility of the RB-resistant strain to TB drugs
1,"NC[C@H]1O[C@@H](O[C@H]([C@H]2O[C@@H](n3ccc(=O)[nH]c3=O)[C@H](O)[C@@H]2O)[C@H](NCCCC(=O)NCc2ccc(N3CCC(Oc4ccc(OC(F)(F)F)cc4)CC3)cc2)C(N)=O)[C@H](O)[C@@H]1O [APPB, aminouridyl phenoxypiperidinylbenzyl butanamide]",susceptible
2,Capreomycin,susceptible
3,NCC[C@H](O)C(=O)N[C@@H]1C[C@H](N)[C@@H](O[C@H]2O[C@H](CN)[C@@H](O)[C@H](O)[C@H]2O)[C@H](O)[C@H]1O[C@H]1O[C@H](CO)[C@@H](O)[C@H](N)[C@H]1O [Amikacin],susceptible
4,"CCc1cc(C(N)=S)ccn1 [Ethionamide (ETH), Ethionamide]",susceptible
5,"NNC(=O)c1ccncc1 [Isoniazid (INH), Isoniazid]",cross-resistance

# — patent publication US12661335B2, “Halogenated xanthene-containing topical anti-gram-positive bacterial ophthalmic composition and method” (Provectus Pharmatech, Inc., priority 2021, dated 2026)
